Experiment [1] concerns the target CtCel7A (Chaetomium thermophilum, UniProt A7WNU1). Put plainly: Cellobiose inhibition of MUL hydrolysis by CtCel7A. Format: biochemical. The conditions noted are these: MUL substrate (5 μM). An excerpt:
The cellobiose inhibition of GH7 CBHs is most often studied on low-Mw model substrates. However, it has been shown that the inhibition of CBHs acting on low-Mw substrates appears to be much stronger than that on cellulose substrates. The Ki values for cellobiose inhibition of GH7 CBHs measured on low-Mw substrates are in the micromolar range [44, 51, 52], whereas those measured on cellulose are in the low- to high-millimolar range [28, 31, 32]. […] Unfortunately, the inhibition of this enzyme on cellulose has not been studied. We also studied the cellobiose inhibition of GH7 CBHs acting on MUL. The initial rates of MUL hydrolysis measured in the presence and absence of added cellobiose were first analyzed according to Equation 1, and the IC50 values were found using Equation 2. […] The inhibition of MUL hydrolysis is attributable to the binding of cellobiose to the product sites (+1/+2) of TrCel7A [52]. […]
For the inhibition of enzyme acting on the low-Mw substrate, the initial rates of the hydrolysis of MUL in the presence and absence of added cellobiose were followed. […] Reactions were stopped by the addition of NH3 (final concentration 0.1 M), and the released 4-methylumbelliferone was quantified by fluorescence using excitation and emission wavelengths of 360 nm and 450 nm, respectively.

Experiment [2] relates to TrCel12A. Put plainly: Cellobiose effect on hydrolysis of 14C-amorphous cellulose by TrCel12A. It is filed as biochemical, Trichoderma reesei. The conditions noted are these: 35°C. An excerpt: EGs are a diverse group of enzymes present in all efficient cellulase systems. Their best recognized function is their synergism with CBHs. Depending on the conditions, the degree of synergistic effect may be more than 10-fold. Therefore, the inhibition of the EG component may result in a drastic decrease in the rate of the synergistic hydrolysis of cellulose. The main soluble product of the EG-catalyzed cellulose hydrolysis is cellobiose, but some glucose and higher-order oligosaccharides are also produced. Here, we studied the cellobiose inhibition of the EGs TrCel7B, TrCel5A and TrCel12A with ^14C-amorphous cellulose substrate. The enzyme concentrations and hydrolysis times were adjusted so that the linear region of the time course was studied. The time courses for the hydrolysis of ^14C-amorphous cellulose by TrCel7B in the presence and absence of added cellobiose are shown in Figure 9A. For the results with TrCel5A and TrCel12A, see Additional file 1: Figure S5. […] This figure is reasonably well in line with that measured for TrCel7B on amorphous cellulose using isothermal titration calorimetry. […]
EGs were assessed on ^14C-amorphous cellulose. ^14C-amorphous cellulose (0.5 g l^-1) was incubated (with shaking at 700 rpm) with EG in 50 mM sodium acetate buffer, pH 5.0, containing BSA (0.1 g l^-1) in the presence and absence of added cellobiose. […]

In experiment [3] the target is T1, TrCel7A (Trichoderma reesei, UniProt P62694).
T1 construct: TrCel7A was purified from the culture filtrate of Tr QM 9414 as described previously; made in house; host or cells: Trichoderma reesei QM 9414 culture filtrate (native producer)
T1 sequence (P62694 18-513): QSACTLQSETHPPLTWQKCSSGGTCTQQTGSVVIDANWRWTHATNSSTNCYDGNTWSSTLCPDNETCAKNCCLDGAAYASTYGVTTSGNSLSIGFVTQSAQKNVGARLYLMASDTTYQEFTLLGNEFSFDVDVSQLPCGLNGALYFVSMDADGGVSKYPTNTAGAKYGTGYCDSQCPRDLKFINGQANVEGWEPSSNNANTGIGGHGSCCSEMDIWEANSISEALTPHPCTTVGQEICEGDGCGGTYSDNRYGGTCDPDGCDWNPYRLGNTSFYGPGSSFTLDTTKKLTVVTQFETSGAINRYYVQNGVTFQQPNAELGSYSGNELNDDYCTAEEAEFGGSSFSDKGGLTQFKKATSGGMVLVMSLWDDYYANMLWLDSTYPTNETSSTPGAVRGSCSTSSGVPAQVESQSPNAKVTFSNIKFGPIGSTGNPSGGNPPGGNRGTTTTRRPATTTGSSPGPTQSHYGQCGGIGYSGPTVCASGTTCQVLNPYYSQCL
The arrangement: method as in PMID 22733813. The settings on record: read-out: IC50 for cellobiose, 14C-BC substrate, 25°C; cited from earlier work.

Experiment [4] relates to TrCel12A. The arrangement: method as in PMID 15129433. The settings on record: 3H-reduced amorphous cellulose, cellobiose 1 mM – 100 mM; cited from earlier work.

Like-named read-outs stand apart in the source and are kept apart here.

This is an account of results in paper PMC3726336, “Product inhibition of cellulases studied with ^14C-labeled cellulose substrates” (Biotechnology for Biofuels, 2013).

CtCel7A, sequence (A7WNU1 entry or part of it): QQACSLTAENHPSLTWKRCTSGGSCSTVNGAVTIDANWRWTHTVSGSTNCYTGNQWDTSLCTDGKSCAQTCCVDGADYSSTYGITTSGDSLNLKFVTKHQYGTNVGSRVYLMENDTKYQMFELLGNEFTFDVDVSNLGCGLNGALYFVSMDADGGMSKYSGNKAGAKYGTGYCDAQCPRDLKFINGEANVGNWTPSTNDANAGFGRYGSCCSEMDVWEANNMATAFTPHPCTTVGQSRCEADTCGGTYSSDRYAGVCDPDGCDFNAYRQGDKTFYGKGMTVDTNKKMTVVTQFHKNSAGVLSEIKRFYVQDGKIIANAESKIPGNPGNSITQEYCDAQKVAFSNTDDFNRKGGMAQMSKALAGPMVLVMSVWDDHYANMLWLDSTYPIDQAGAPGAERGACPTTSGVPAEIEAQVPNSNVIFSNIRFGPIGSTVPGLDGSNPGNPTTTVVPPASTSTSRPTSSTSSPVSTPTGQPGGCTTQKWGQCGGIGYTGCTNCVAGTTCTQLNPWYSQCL

With `O=C[C@H](O)[C@@H](O)[C@H](O[C@@H]1O[C@H](CO)[C@@H](O)[C@H](O)[C@H]1O)[C@H](O)CO` [cellobiose, Cellobiose], the Ki (commonly the dissociation constant of the complex between target and ligand, obtained from inhibition or displacement) amounted to 110 µM in experiment [1] (35°C) and 346 µM in experiment [1] (50°C). Moreover, in experiment [2] (TrCel12A (50 nM), not accountable by Equation 5), the “IC50 (approximate, by visual inspection of Figure 9B)” value is “few hundred millimolar range”. Further, the “Effect of cellobiose on activity” value was “apparent activation” in experiment [2] (TrCel12A, 75 mM cellobiose) and “apparent activation” in experiment [4]. Also, in experiment [3], the half-inhibitory concentration (IC50) (usually the midpoint of a concentration-inhibition curve) was 380 ± 30 µM.
